Source: the Kinase Knowledgebase extract (Sharma et al. 2016)

What follows are molecules tested against EGFR (UniProt P00533).
EGFR, sequence (P00533 whole entry, looked up): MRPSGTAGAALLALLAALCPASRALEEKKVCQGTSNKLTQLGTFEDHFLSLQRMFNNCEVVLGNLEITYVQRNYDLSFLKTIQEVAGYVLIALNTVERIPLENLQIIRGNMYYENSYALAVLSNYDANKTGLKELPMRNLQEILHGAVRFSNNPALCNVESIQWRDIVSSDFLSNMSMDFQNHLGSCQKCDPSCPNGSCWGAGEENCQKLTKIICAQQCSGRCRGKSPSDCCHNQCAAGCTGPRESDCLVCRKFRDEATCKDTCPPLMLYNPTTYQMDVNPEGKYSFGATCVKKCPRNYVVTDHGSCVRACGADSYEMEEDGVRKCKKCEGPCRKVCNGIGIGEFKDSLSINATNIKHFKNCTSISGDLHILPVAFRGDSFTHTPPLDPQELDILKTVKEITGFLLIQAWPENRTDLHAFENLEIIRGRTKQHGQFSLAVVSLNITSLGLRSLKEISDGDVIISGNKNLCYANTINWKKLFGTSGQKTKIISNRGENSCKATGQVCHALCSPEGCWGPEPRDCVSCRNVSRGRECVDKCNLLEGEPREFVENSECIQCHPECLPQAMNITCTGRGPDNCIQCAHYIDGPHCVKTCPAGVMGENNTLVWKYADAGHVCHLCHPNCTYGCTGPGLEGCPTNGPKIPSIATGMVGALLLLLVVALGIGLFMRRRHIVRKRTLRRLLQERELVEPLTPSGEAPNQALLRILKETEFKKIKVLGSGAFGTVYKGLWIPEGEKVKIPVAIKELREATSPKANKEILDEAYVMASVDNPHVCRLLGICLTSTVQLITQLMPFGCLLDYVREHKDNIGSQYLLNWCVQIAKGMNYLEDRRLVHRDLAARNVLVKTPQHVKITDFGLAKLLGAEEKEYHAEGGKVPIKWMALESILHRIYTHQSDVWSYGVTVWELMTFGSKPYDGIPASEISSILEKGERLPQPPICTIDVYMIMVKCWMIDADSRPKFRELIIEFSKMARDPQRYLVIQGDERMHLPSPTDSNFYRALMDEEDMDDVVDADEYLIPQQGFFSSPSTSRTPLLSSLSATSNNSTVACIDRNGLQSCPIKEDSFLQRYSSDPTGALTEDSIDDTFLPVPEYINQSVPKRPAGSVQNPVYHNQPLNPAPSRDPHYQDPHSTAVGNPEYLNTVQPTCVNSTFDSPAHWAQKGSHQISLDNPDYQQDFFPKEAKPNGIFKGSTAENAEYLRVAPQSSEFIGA

Compound	IC50 [nM]
CCN1CCC(Nc2ccc3c(c2)/C(=C(\c2cc(F)cc(F)c2)c2nc(C)c[nH]2)C(=O)N3)CC1	50 to 500
COCCN1CCC(Nc2ccc3c(c2)/C(=C(\c2cccc(F)c2)c2nc4ccccc4[nH]2)C(=O)N3)CC1	50 to 500
COCCN1CCC(Nc2ccc3c(c2)/C(=C(\c2ccc(F)c(F)c2)c2ncc[nH]2)C(=O)N3)CC1	> 5000
CCN1CCC(Nc2ccc3c(c2)/C(=C(/c2nc(C)c[nH]2)c2cccc(F)c2F)C(=O)N3)CC1	50 to 500
COCCN1CCC(Nc2ccc3c(c2)/C(=C(\c2cc(F)cc(F)c2)c2ncc[nH]2)C(=O)N3)CC1	50 to 500
CCN1CCC(Nc2ccc3c(c2)/C(=C(/c2ncc[nH]2)c2cc(F)c(Cl)cc2Cl)C(=O)N3)CC1	50 to 500
CCN1CCC(Nc2ccc3c(c2)/C(=C(\c2ccc(Cl)cc2)c2nc(C)c[nH]2)C(=O)N3)CC1	50 to 500
CCCc1ccc(/C(=C2/C(=O)Nc3ccc(NC4CCN(CC)CC4)cc32)c2ncc[nH]2)cc1	50 to 500
CCN1CCC(Nc2ccc3c(c2)/C(=C(\c2ccc(C(F)(F)F)cc2)c2nc(C)c[nH]2)C(=O)N3)CC1	50 to 500
COCCN1CCC(Nc2ccc3c(c2)/C(=C(\c2ccccc2)c2nc4ccccc4[nH]2)C(=O)N3)CC1	50 to 500
CCN1CCC(Nc2ccc3c(c2)/C(=C(\c2cccc(OC)c2)c2nc4ccccc4[nH]2)C(=O)N3)CC1	50 to 500
CCN1CCC(Nc2ccc3c(c2)/C(=C(\c2ccc(F)c(F)c2)c2nc(C)c[nH]2)C(=O)N3)CC1	< 50
O=C1Nc2ccc(NC3CCN(CCN4CCOCC4)CC3)cc2/C1=C(\c1cccc(F)c1)c1ncc[nH]1	> 5000
CCN1CCC(Nc2ccc3c(c2)/C(=C(\c2ccc(OC)cc2)c2nc4cc(OC)ccc4[nH]2)C(=O)N3)CC1	500 to 5000
O=C1Nc2ccc(NC3CCNCC3)cc2/C1=C(\c1cccc(F)c1)c1ncc[nH]1	> 5000
CCN1CCC(Nc2ccc3c(c2)/C(=C(/c2nc(C)c[nH]2)c2ccc(F)cc2F)C(=O)N3)CC1	50 to 500
CCN1CCC(Nc2ccc3c(c2)/C(=C(\c2cccc(Cl)c2)c2ncc[nH]2)C(=O)N3)CC1	50 to 500
CCN1CCC(Nc2ccc3c(c2)/C(=C(\c2ccc(C)cc2)c2ncc[nH]2)C(=O)N3)CC1	50 to 500
CCN1CCC(Nc2ccc3c(c2)/C(=C(/c2cc(F)cc(F)c2)c2nc4cc(F)ccc4[nH]2)C(=O)N3)CC1	> 5000
COc1ccc2[nH]c(/C(=C3\C(=O)Nc4ccc(NC5CCN(Cc6ccccc6)C5)cc43)c3ccccc3)nc2c1 (configuration not stated)	500 to 5000
COCCN1CCC(Nc2ccc3c(c2)/C(=C(\c2cccc(Cl)c2)c2ncc[nH]2)C(=O)N3)CC1	500 to 5000
CCN1CCC(Nc2ccc3c(c2)/C(=C(\c2ccc(N)cc2)c2nc4ccccc4[nH]2)C(=O)N3)CC1	50 to 500
